In US11528912B2, “Bacillus methylotrophicus strain DR-08 producing natural volatile compound and having antibacterial activity, and use thereof” (GLOBAL AGRO CO., LTD., priority 2016, dated 2022):
Structures can show the parent of a compound that is named as a salt.

How the values were obtained:
Type in all cases: cell-based
[1] = test system: Xanthomonas axonopodis pv. citri; assay: 96-well microplate bioassay, MIC; conditions: read-out: Minimum inhibitory concentration (MIC)
Burkholderia glumae = assay: microbe, parasite or virus in culture; conditions: read-out: Minimum inhibitory concentration (MIC)
Ralstonia solanacearum = assay: microbe, parasite or virus in culture; conditions: read-out: Minimum inhibitory concentration (MIC)
[2] = test system: Clavibacter michiganensis subsp. michiganensis; assay: 96-well microplate bioassay, MIC; conditions: read-out: Minimum inhibitory concentration (MIC)
[3] = test system: Xanthomonas euvesicatoria; assay: microbe, parasite or virus in culture; conditions: read-out: Minimum inhibitory concentration (MIC)
[4] = test system: Acidovorax avenae subsp. cattleyae; assay: 96-well microplate bioassay, MIC; design: key: —: Not active
Method: (§1) The butanol extract produced as in Example 3 was dissolved in methanol at a level of 5 mg/mL, and antibacterial activity thereof against various plant pathogens was examined.
(§2) Then, dilution with sterilized water was performed to reach 10^6 CFU/ml, and inoculation into a 96-well plate was performed.
(§3) For the butanol extract of the Bacillus sp. strain DR-08, the butanol extract of the strain DR-08 and streptomycin sulfate as a control agent were made to have the highest concentrations of 500·μg/mL and 100 μg/mL, respectively, in a TSB medium into which 14 various phytopathogenic bacteria including Gram-negative and Gram-positive bacteria had been inoculated. Then, starting from the next well, the concentrations were decreased by 2-fold using an octapipette. The butanol extract of the strain DR-08 was used by being sequentially diluted by 2-fold from 500 μg/mL at the highest down to 15.6 μg/mL, and streptomycin sulfate as a control agent was used by being sequentially diluted by 2-fold from 100 μg/mL at the highest down to 3.1 μg/mL. Standing culture was performed at optimal growth conditions, and then growth of the phytopathogenic bacteria was measured at an absorbance of 595 nm with a microplate reader. Then, a minimum growth inhibitory concentration (MIC) value was determined.

[5] = test system: Pectobacterium chrysanthemi; assay: 96-well microplate bioassay, MIC; design: key: —: Not active
Method: as §1, §2, §3

[6] = test system: Xanthomonas oryzae pv. oryzae; assay: microbe, parasite or virus in culture; conditions: read-out: Minimum inhibitory concentration (MIC)
[7] = test system: Xanthomonas arboricola pv. pruni; assay: microbe, parasite or virus in culture; conditions: 48 h, read-out: Clear zone
[8] = test system: Xanthomonas arboricola pv. pruni; assay: 96-well microplate bioassay, MIC; conditions: read-out: Minimum inhibitory concentration (MIC)
Method: as §1, §2, §3

[9] = test system: Pectobacterium carotovora subsp. carotovora; assay: 96-well microplate bioassay, MIC; conditions: read-out: Minimum inhibitory concentration (MIC)
Method: as §1, §2, §3

Acidovorax konjaci = assay: 96-well microplate bioassay, MIC; conditions: Paracidovorax konjaci; read-out: Minimum inhibitory concentration (MIC)
Method: as §1, §2, §3

[10] = test system: Pseudomonas syringae pv. actinidiae; assay: 96-well microplate bioassay, MIC; conditions: read-out: Minimum inhibitory concentration (MIC)
Method: as §1, §2, §3

[11] = test system: Agrobacterium tumefaciens; assay: 96-well microplate bioassay, MIC; conditions: read-out: Minimum inhibitory concentration (MIC)
Method: as §1, §2, §3

[12] = test system: Pseudomonas syringae pv. lachrymans; assay: 96-well microplate bioassay, MIC; conditions: read-out: Minimum inhibitory concentration (MIC)
Method: as §1, §2, §3

[H]/N=C(/N)N[C@H]1[C@H](O)[C@@H](O)[C@H](O[C@@H]2O[C@@H](C)[C@](O)(C=O)[C@H]2O[C@@H]2O[C@@H](CO)[C@H](O)[C@@H](O)[C@@H]2NC)[C@@H](N/C(N)=N\[H])[C@@H]1O [Streptomycin sulfate, streptomycin sulfate] was tested, and the MIC [1] was 6.25 µg/mL, the MIC (Burkholderia glumae) was 12.5 µg/mL and the MIC (Ralstonia solanacearum) was 3.12 µg/mL. The MIC [2] was 25 µg/mL, the MIC [3] was 12.5 µg/mL and the “Minimum inhibitory concentration (MIC)” value [4] was “—”. For the same compound, the “Minimum inhibitory concentration (MIC)” value [5] was “—”, the MIC [6] was 3.12 µg/mL and the zone of inhibition at 200 ppm [7] was 4 mm. It also gave an MIC [8] of 12.5 µg/mL, an MIC [9] of 12.5 µg/mL and an MIC (Acidovorax konjaci) of 6.25 µg/mL. The MIC [10] was 12.5 µg/mL, the MIC [11] was 100 µg/mL and the MIC [12] was 50 µg/mL.
